Laboratory results taken from PubChem BioAssay (NCI).
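Grown in 96-well plates, cells were treated for 48 hours with each compound at five concentrations. Insufficient inhibition: endpoint recorded as highest concentration tested. TGI marks complete inhibition of growth.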

Assays:
Assay in all cases: NCI tumour cell line growth inhibition, 48 h
786-0 renal = test system: 786-0 renal
A498 renal = test system: A498 renal
A549 NSCLC = test system: A549 NSCLC
ACHN renal = test system: ACHN renal
BT-549 breast = test system: BT-549 breast
CAKI-1 renal = test system: CAKI-1 renal
CCRF-CEM leukemia = test system: CCRF-CEM leukemia
COLO 205 colon = test system: COLO 205 colon
DU-145 prostate = test system: DU-145 prostate
EKVX NSCLC = test system: EKVX NSCLC
HCC-2998 colon = test system: HCC-2998 colon
HCT-116 colon = test system: HCT-116 colon
HCT-15 colon = test system: HCT-15 colon
HL-60(TB) leukemia = test system: HL-60(TB) leukemia
HOP-62 NSCLC = test system: HOP-62 NSCLC
HS 578T breast = test system: HS 578T breast
HT29 colon = test system: HT29 colon
IGROV1 ovarian = test system: IGROV1 ovarian
K-562 leukemia = test system: K-562 leukemia
KM12 colon = test system: KM12 colon
M14 melanoma = test system: M14 melanoma
MCF7 breast = test system: MCF7 breast
MDA-MB-231 breast = test system: MDA-MB-231 breast
MDA-N = test system: MDA-N
MOLT-4 leukemia = test system: MOLT-4 leukemia
NCI-H226 lung = test system: NCI-H226 lung
NCI-H23 lung = test system: NCI-H23 lung
NCI-H460 lung = test system: NCI-H460 lung
NCI-H522 lung = test system: NCI-H522 lung
NCI/ADR-RES ovarian = test system: NCI/ADR-RES ovarian
OVCAR-3 ovarian = test system: OVCAR-3 ovarian
OVCAR-4 ovarian = test system: OVCAR-4 ovarian
OVCAR-5 ovarian = test system: OVCAR-5 ovarian
OVCAR-8 ovarian = test system: OVCAR-8 ovarian
PC-3 prostate = test system: PC-3 prostate
SF-268 CNS = test system: SF-268 CNS
SF-295 CNS = test system: SF-295 CNS
SF-539 CNS = test system: SF-539 CNS
SK-MEL-2 melanoma = test system: SK-MEL-2 melanoma
SK-MEL-28 melanoma = test system: SK-MEL-28 melanoma
SK-MEL-5 melanoma = test system: SK-MEL-5 melanoma
SK-OV-3 ovarian = test system: SK-OV-3 ovarian
SN12C renal = test system: SN12C renal
SNB-19 CNS = test system: SNB-19 CNS
SNB-75 CNS = test system: SNB-75 CNS
SR leukemia = test system: SR leukemia
SW-620 colon = test system: SW-620 colon
T-47D breast = test system: T-47D breast
TK-10 renal = test system: TK-10 renal
U251 CNS = test system: U251 CNS
UACC-257 melanoma = test system: UACC-257 melanoma
UACC-62 melanoma = test system: UACC-62 melanoma
UO-31 renal = test system: UO-31 renal
HOP-92 NSCLC = test system: HOP-92 NSCLC
LOX IMVI melanoma = test system: LOX IMVI melanoma
MALME-3M melanoma = test system: MALME-3M melanoma
MDA-MB-435 = test system: MDA-MB-435
RPMI-8226 leukemia = test system: RPMI-8226 leukemia
RXF 393 renal = test system: RXF 393 renal

Measured: TGI

N#Cc1nn(C(N)=O)c(N)c1C#N
not listed: HOP-92 NSCLC | LOX IMVI melanoma | MALME-3M melanoma | MDA-MB-435 | RPMI-8226 leukemia | RXF 393 renal
> 100 µM: all other assays above

CC(C)OC(=O)C1=C2c3ncccc3C(=O)N2[C@@H](Cl)[C@@H](Cl)[C@@H]1Cl
95.9 µM: MOLT-4 leukemia
90.4 µM: SN12C renal
not listed: CCRF-CEM leukemia | SK-OV-3 ovarian | SNB-75 CNS | T-47D breast
> 100 µM: all other assays above
